Experiments:
[1] = system: Sprague-Dawley rats; test: Development of morphine tolerance with systemic treatment, tail-flick test; assay type: in vivo, rat; settings: for inhibition of the development of morphine tolerance: FIG. 6
[2] = system: rats; test: Health observations (death, grooming, weight loss) during the morphine tolerance experiment; settings: for overall toxicity: conclusion of Example 4; for rats that died due to drug administration: GM1 or dextrorphan treatment groups; for grooming and weight: ganglioside GM1 or dextrorphan treatment groups
[3] = system: rats; test: Development of morphine tolerance with intrathecal treatment, tail-flick test; assay type: in vivo, rat; settings: for analgesic effect of morphine (tail-flick latency) on day 8: 100 or 50 nmol intrathecal immediately before each morphine 10 μg; for dose relation of the prevention of morphine tolerance: intrathecal; for prevention of the development of morphine tolerance: intrathecal administration immediately before each once daily intrathecal morphine sulfate 10 μg, FIGS. 7-10
Method: Morphine sulfate 10 μg was delivered once daily through an intrathecal (spinal) canula implanted 5 days before the first morphine injection. Ganglioside GM1 or saline also was delivered intrathecally 30 minutes before each morphine injection.
Intrathecal ganglioside GM1 was given 30 min before each morphine administration. […] Vertical bars are standard errors. Maximal possible effects (MPE) were calculated by the formula % MPE=[(TL−BL)/(10−BL)]×100. TL: actual tail-flick latency; BL: baseline latency obtained before the first morphine injection; 10: cut-off time for radiant heat stimulation.
Calmodulin is an intracellular colactor necessary for the nitric oxide pathway that can be initiated upon NMDA receptor activation. […] Each data point in FIGS. 7-10 represents the mean of a group of rats (n=6) and standard errors are shown by vertical lines. The asterisks refer to statistical differences (α=0.05) between the saline group and each other group.

[4] = system: Sprague-Dawley rats; test: Naloxone-produced jumping (withdrawal symptom) in morphine-treated rats; assay type: in vivo, rat

Question: With `C[C@]12N[C@H](Cc3ccccc31)c1ccccc12` [MK 801, 5-methyl-10,11-dihydro-SH-dibenzo[a,d]cyclohepten-5,10-imine] as the molecule, how does the “inhibition of the development of morphine tolerance” value ([1]; MK 801 0.3 mg/kg) read?
Answer: Its value is “inhibited the development of morphine tolerance”.

Question: What about the “rats that died before the completion of the experiment” value ([2]; 0.3 mg/kg, 3 out of 6) of the same molecule?
Answer: Its value is 50%.

Question: And the “grooming and weight of the remaining rats” value ([2]; MK 801 0.3 mg/kg)?
Answer: Its value is “apparently poor grooming and weight loss”.

Question: What about the overall toxicity [2] of the same molecule?
Answer: Its overall toxicity is “severe cytotoxic effects”.

Question: With `CN1CCN(CCCN2c3ccccc3Sc3ccc(C(F)(F)F)cc32)CC1` [TFP, trifluoperazine] as the molecule, how does the “analgesic effect of morphine (tail-flick latency) on day 8” value [3] read?
Answer: The value was “showed a reliable analgesic effect of morphine”.

Question: What about the “dose relation of the prevention of morphine tolerance” value [3] of the same molecule?
Answer: The value was 100=50 nmol>25=12.5 nmol.

Question: And the “prevention of the development of morphine tolerance” value [3]?
Answer: Its value is “effectively prevent the development of morphine tolerance”.

Question: Which “analgesic effect of morphine (tail-flick latency) on day 8” value [3] does the source give for `Cl.NCCCCCCNS(=O)(=O)c1cccc2c(Cl)cccc12` [W-7, N-(6-aminohexyl)-5-chloro-1-naphthalenesulfonamide hydrochloride] here?
Answer: The value was “showed a reliable analgesic effect of morphine”.

Question: And the “dose relation of the prevention of morphine tolerance” value [3]?
Answer: Its value is 100=50 nmol>25=12.5 nmol.

Question: What about the “prevention of the development of morphine tolerance” value [3] of the same molecule?
Answer: Its value is “effectively prevent the development of morphine tolerance”.

Question: `CN1CC[C@]23CCCC[C@H]2[C@H]1Cc1ccc(O)cc13` [dextrorphan, (+)-3-hydroxy-N-methylmorphinan] was tested. Which “analgesic effect of the morphine on coadministration” value ([1]; coadministration of dextrorphan with morphine) did it give?
Answer: The value was “remains substantially unaffected”.

Question: And the “prevention of the development of morphine tolerance (tail-flick latency)” value ([1]; dextrorphan 1.56, 3.13, 6.25, 12.5 mg/kg i.p. 30 min prior to each morphine 10 mg/kg s.c. twice daily, vs saline control, FIG. 1)?
Answer: Its value is “potently prevented the development of morphine tolerance”.

Question: And the “incidence of jumping after naloxone 2 mg/kg s.c.” value ([4]; dextrorphan 3.13 and 6.25 mg/kg, morphine 10 mg/kg twice daily for 9 days, vs MOR+SAL, FIG. 2)?
Answer: The value was “significantly reduced the incidence of jumping”.

Question: And the “rats that died due to drug administration” value [2]?
Answer: Its value is “None”.

Question: What about the overall toxicity [2] of the same molecule?
Answer: The overall toxicity was “nontoxic”.

Question: What about the grooming and weight [2] of the same molecule?
Answer: Its grooming and weight is “continued to appear well groomed and did not show weight loss”.

Question: What does the source list for `CN1CC[C@]23c4c5ccc(O)c4O[C@H]2[C@@H](O)C=C[C@H]3[C@H]1C5.O=S(=O)(O)O` [morphine, morphine sulfate]?
Answer: post-drug tail-flick latency scores ([1]; measured 1 hour after drug administration, first 5 days of daily administration, morphine 10 mg/kg s.c. twice daily, baseline 4-5 seconds): ~10 s; response to morphine (tolerance), control group ([1]; morphine 10 mg/kg s.c. twice daily + saline, at 7 and 9 days): marked reduction in response to morphine; response to morphine (tolerance), control group ([3]; once daily intrathecal morphine 10 μg + saline, Day 8, each tested time point): marked reduction in response to morphine; tolerance to the analgesic effect (tail-flick latencies vs baseline, day 1) ([3]; once daily intrathecal morphine sulfate 10 μg and saline for 7 consecutive days): developed tolerance to the analgesic effect or morphine

Question: For ganglioside GM1, which “inhibition of the development of morphine tolerance” value ([1]; ganglioside GM1 60 mg/kg) is on record?
Answer: The value was “inhibited the development of morphine tolerance to the degree equivalent to that induced by 0.3 mg/kg MK 801”.

Question: What about the “tail flick latency versus saline-treated rats” value ([1]; ganglioside GM1 10, 30, 60 mg/kg systemic, 1 hour before each morphine, days 5, 7, 9 and 10 of repeated morphine, FIG. 3) of the same molecule?
Answer: The value was “remained significantly longer than that of saline-treated rats”.

Question: What about the “comparison of doses for prevention of morphine tolerance” value ([1]; ganglioside GM1 systemic, 10, 30, 60 mg/kg, FIG. 3) of the same molecule?
Answer: The value was 30 and 60 mg/kg were more effective at days 9 and 10 than 10 mg/kg.

Question: What about the “number of jumps after naloxone 2 mg/kg s.c.” value ([4]; GM1 10, 30 and 60 mg/kg systemic, morphine 10 mg/kg twice daily for 9 days, vs MOR+SAL, FIG. 4) of the same molecule?
Answer: Its value is “effective”.

Question: What about the “most effective dose tested against naloxone-produced jumping” value ([4]; GM1 systemic, doses 10, 30, 60 mg/kg) of the same molecule?
Answer: Its value is 60 mg/kg.

Question: And the “prevention of morphine tolerance (maximal possible effects, % MPE)” value ([3]; intrathecal ganglioside GM1 30 min before each once daily intrathecal morphine 10 μg, Day 8, 15-240 minutes after morphine, vs saline, FIG. 5)?
Answer: Its value is “effectively prevented the development of morphine tolerance”.

Question: What about the “order of doses, maximal possible analgesia effects of morphine” value ([3]; intrathecal ganglioside GM1, Day 8) of the same molecule?
Answer: Its value is 160 nmol>80=40 nmol.

Question: What about the “rats that died due to drug administration” value [2] of the same molecule?
Answer: The value was “None”.

Question: What about the overall toxicity [2] of the same molecule?
Answer: Its overall toxicity is “nontoxic”.

Question: What about the grooming and weight [2] of the same molecule?
Answer: The grooming and weight was “continued to appear well groomed and did not show weight loss”.
